Data on 13 compounds can be found in PubChem BioAssay (NCI).

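Compound exposure: 48 hours, 5 concentrations, 96-well plates. The concentration for 50% growth inhibition is given as GI50. TGI marks complete inhibition of growth.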 A value given as a limit tells only on which side of the number the result lay.

Some test systems named below: 786-0 renal; SR leukemia; SK-OV-3 ovarian; HOP-92 NSCLC; OVCAR-4 ovarian; HCT-116 colon; COLO 205 colon; SK-MEL-2 melanoma.
Experiment in all cases: DTP human tumour cell line panel, 48 h

As a reminder, the GI50 is the concentration giving 50% growth inhibition. As a reminder, the TGI is the concentration giving total growth inhibition. A high value points to lower sensitivity of the cells. In the case of `O=[n+]1c2ccccc2n([O-])c2cc(Cl)ccc21`, the GI50 in the assay with 786-0 renal was 3.12 µM; in the assay with SR leukemia, 2.19 µM; in the assay with SK-OV-3 ovarian, 7.12 µM; with HOP-92 NSCLC, 2.14 µM; in the assay on OVCAR-4 ovarian, 2.67 µM; in the assay on HCT-116 colon, 3.37 µM. The GI50 in the assay on COLO 205 colon was 4.65 µM. Further, the concentration for total growth inhibition (TGI) in the assay on 786-0 renal stood at 13.4 µM; in the assay with SR leukemia it was 7.53 µM; in the assay on SK-OV-3 ovarian, 20.4 µM; with HOP-92 NSCLC, 8.29 µM; with OVCAR-4 ovarian, 26.6 µM; in the assay on HCT-116 colon it was 12.7 µM. This compound also had a TGI with COLO 205 colon of 18.2 µM.
With `C/C(=N\NC(=S)N1CCCCCCCCCCCC1)c1ccccn1`, the TGI in the assay on 786-0 renal is 1.24 µM; with SR leukemia it was 2.28 µM; in the assay on SK-MEL-2 melanoma, 1.27 µM; in the assay with HOP-92 NSCLC, 0.42 µM; in the assay on OVCAR-4 ovarian, 1.51 µM; in the assay on HCT-116 colon it was 1.66 µM.
With `COCCN1CCN(Cc2ccc(-c3n[nH]c4c3C(=O)c3c(NC(=O)NN5CCOCC5)cccc3-4)cc2)CC1`, the GI50 with 786-0 renal is 0.0336 µM; with SR leukemia, 0.00985 µM; in the assay with SK-OV-3 ovarian, 0.0457 µM; in the assay on SK-MEL-2 melanoma it was 0.0212 µM; with OVCAR-4 ovarian it was 0.0322 µM; with HCT-116 colon it was 0.00897 µM. The GI50 with COLO 205 colon was 0.0151 µM. Also, the TGI in the assay on 786-0 renal was greater than 10 µM; in the assay with SR leukemia, 0.0599 µM; in the assay with SK-OV-3 ovarian, greater than 9.41 µM; in the assay with SK-MEL-2 melanoma, 0.0556 µM; with OVCAR-4 ovarian, 0.932 µM; in the assay with HCT-116 colon, 1.14 µM. This compound also gave a TGI in the assay on COLO 205 colon of 0.0474 µM.
Regarding `Oc1ccc(CCNCc2cc3c(cc2Br)OCO3)cc1`, the TGI is greater than 100 µM with 786-0 renal; greater than 100 µM in the assay with SR leukemia; greater than 100 µM in the assay on SK-OV-3 ovarian; 74.6 µM in the assay with SK-MEL-2 melanoma; greater than 100 µM in the assay with HOP-92 NSCLC; greater than 100 µM in the assay with HCT-116 colon. The concentration for total growth inhibition (TGI) with COLO 205 colon is 40.8 µM.
In the case of `O=c1c(Br)cc2c(-c3ccccc3)c3cc(Br)c(O)c(Br)c3oc-2c1Br`, the TGI in the assay on 786-0 renal was greater than 100 µM; in the assay on SK-OV-3 ovarian, greater than 100 µM; with HOP-92 NSCLC, greater than 100 µM; in the assay on OVCAR-4 ovarian, 63.7 µM; in the assay on HCT-116 colon, greater than 100 µM; with COLO 205 colon it was greater than 100 µM.
On to `O=C1Nc2ccccc2/C1=C\c1nc(C2CCN(S(=O)(=O)c3ccc(F)cc3)CC2)n2ccccc12`, for which the GI50 in the assay on 786-0 renal is 2.37 µM; in the assay with SR leukemia, greater than 100 µM; in the assay with SK-OV-3 ovarian, 4.96 µM; in the assay with SK-MEL-2 melanoma, 2.08 µM; with HCT-116 colon, 13.3 µM; in the assay on COLO 205 colon, greater than 100 µM. In addition, the TGI with 786-0 renal is 6.71 µM; in the assay on SR leukemia, greater than 100 µM; with SK-OV-3 ovarian it was greater than 100 µM; with SK-MEL-2 melanoma it was 7.35 µM; with HCT-116 colon it was greater than 100 µM; in the assay on COLO 205 colon, greater than 100 µM.
As for `Cc1ccc(C2=C(c3ccccc3)C(c3ccccc3)Oc3ccc(C)cc32)cc1` (stereo not given), the GI50 was 2.17 µM with 786-0 renal; 16.5 µM with SR leukemia; 1.9 µM with SK-MEL-2 melanoma; 11.4 µM in the assay on HOP-92 NSCLC; 2.27 µM with OVCAR-4 ovarian; 1.68 µM with HCT-116 colon. Besides, the TGI in the assay with 786-0 renal came to 4.74 µM; with SR leukemia, 38.4 µM; in the assay with SK-MEL-2 melanoma it was 3.98 µM; in the assay on HOP-92 NSCLC it was 28.1 µM; with OVCAR-4 ovarian, 7.44 µM; with HCT-116 colon it was 3.43 µM.
Turning to `CC(C)CC(Nc1c(O)ccc2ccccc12)C(=O)O` (stereo not given), the TGI in the assay on 786-0 renal was greater than 100 µM; in the assay with SR leukemia it was greater than 100 µM; in the assay on SK-OV-3 ovarian, 66.3 µM; with SK-MEL-2 melanoma it was 42.5 µM; in the assay with OVCAR-4 ovarian, greater than 100 µM; in the assay with HCT-116 colon, greater than 100 µM. Further, the TGI with COLO 205 colon was greater than 100 µM.
For `C=C(CC(=O)O)C(=O)O` (tested in a mixture with another compound), the GI50 in the assay with 786-0 renal, in the assay with SR leukemia, in the assay with SK-OV-3 ovarian, in the assay with SK-MEL-2 melanoma, in the assay with HOP-92 NSCLC and with HCT-116 colon was greater than 50 µg/mL each time. Further, the GI50 in the assay on COLO 205 colon is greater than 50 µg/mL. The TGI with 786-0 renal, with SR leukemia, in the assay with SK-OV-3 ovarian, in the assay on SK-MEL-2 melanoma, in the assay on HOP-92 NSCLC and in the assay on HCT-116 colon was greater than 50 µg/mL throughout. Moreover, the TGI with COLO 205 colon was greater than 50 µg/mL.
For `COc1ccc2c(Cl)cc(NC(=O)Nc3c(C)cccc3C)nc2c1`, the GI50 in the assay with 786-0 renal was 7.92 µM; with SR leukemia, 27.5 µM; in the assay with SK-OV-3 ovarian, 4.37 µM; with SK-MEL-2 melanoma, 28.6 µM; in the assay on HOP-92 NSCLC, 4.26 µM; in the assay on HCT-116 colon, 5.72 µM. Further, the GI50 with COLO 205 colon is 46 µM. The TGI in the assay with 786-0 renal was greater than 100 µM; with SR leukemia, greater than 100 µM; with SK-OV-3 ovarian it was 83 µM; with SK-MEL-2 melanoma it was 85 µM; with HOP-92 NSCLC, 27.4 µM; with HCT-116 colon it was greater than 100 µM. Moreover, the TGI with COLO 205 colon was greater than 100 µM.
As for `CC(/C=C/c1ccccc1)=N\NC(N)=S`, the TGI in the assay on 786-0 renal is greater than 100 µM; in the assay on SR leukemia it was 65.3 µM; with SK-OV-3 ovarian, greater than 100 µM; in the assay on HOP-92 NSCLC, greater than 100 µM; in the assay with HCT-116 colon it was greater than 100 µM; in the assay on COLO 205 colon, 44.2 µM.
As to `Cc1cc2nc3cc(C)c(N)cc3[n+](-c3ccccc3)c2cc1N`, the GI50 in the assay with 786-0 renal is 6.26 µM; in the assay with SK-OV-3 ovarian, 24.8 µM; in the assay on SK-MEL-2 melanoma, 6.74 µM; in the assay with HOP-92 NSCLC, 3.88 µM; in the assay with OVCAR-4 ovarian it was 3.57 µM; in the assay with HCT-116 colon, 3.64 µM. Further, the GI50 in the assay on COLO 205 colon is 2.55 µM. Also, the TGI with 786-0 renal is greater than 100 µM; in the assay on SK-OV-3 ovarian it was greater than 100 µM; in the assay on SK-MEL-2 melanoma, 47.1 µM; in the assay with HOP-92 NSCLC, 27.8 µM; in the assay with OVCAR-4 ovarian it was greater than 100 µM; in the assay on HCT-116 colon, 41.4 µM. For the same compound, the TGI in the assay on COLO 205 colon is 14.3 µM.
As for `CN1CCN(Cc2ccc(NC(=O)c3cncc(C#Cc4cncc5nccnc45)c3)cc2C(F)(F)F)CC1`, the GI50 is 5.31 µM in the assay on 786-0 renal; 2.98 µM in the assay with SR leukemia; 2.75 µM in the assay on SK-OV-3 ovarian; 0.915 µM with SK-MEL-2 melanoma; 1.04 µM with OVCAR-4 ovarian; 1.39 µM in the assay on HCT-116 colon. For the same compound, in the assay with COLO 205 colon, the GI50 was 0.904 µM. Moreover, the TGI in the assay on 786-0 renal came out at 12.5 µM; with SR leukemia, 28.5 µM; with SK-OV-3 ovarian, 13 µM; in the assay with SK-MEL-2 melanoma, 2.7 µM; in the assay on OVCAR-4 ovarian it was 12 µM; with HCT-116 colon it was 7.35 µM. The compound also gave a TGI in the assay on COLO 205 colon of 7.11 µM.
